Reference: patent publication US20220319656A1, “AUTOMATED LITERATURE META ANALYSIS USING HYPOTHESIS GENERATORS AND AUTOMATED SEARCH” (TECHNION RESEARCH & DEVELOPMENT FOUNDATION, priority 2019, published 2022)

Key:
MG63 = assay: Cell viability assay (MTT), in vitro screen, MG63 cells; type: cell-based, Human; conditions: 72 h
Procedure: Human osteosarcoma MG-63, U2OS cell lines were kind gift from David Meiri, and head and neck FaDu cell line were a kind gift of Moshe Elkabetz. These cells were incubated under standard conditions of 37° C., 5% CO2, and 95% humidity. MG-63 and U2OS cells were cultured in RPMI-1640 (Biological Industries) containing 10% fetal bovine serum, 2 mM L-Glutamine (Biological Industries) and 1% penicillin/streptomycin (Biological Industries).
5000 cells per well in 0.2 ml growth media were seeded in a 96-well plate and allowed to attach for 24 hours. After 24 hours the cells were exposed to logarithmic gradient of drugs (Gemcitabine, Sorafenib, Nilotinib, Carfilzomib, Nintedanib, Trametinib, Cabozantinib, Ponatinib, Infigratinib, Duvelisib).
Cell survival for the cell lines was assayed after 3 days from adding the drugs. For the U20S and MG-63 by adding […] (5 mg/ml) in DDW to each well. After 3 hours, the solution was removed and 200 μl of DMSO was added. For the Fadu cell line by adding 30 μl of MTT solution (5 mg/ml) in DDW to each well. After 1 hour, the solution was removed and 100 μl of DMSO was added to dissolve the formazan crystals. Cell viability was evaluated by measuring the absorbance of each well using a Synergy H1 (BioTek) plate reader at 570 nm relative to control wells.

Fadu cells = type: cell-based; conditions: 72 h
Procedure: FaDu cell line were cultured in DMEM (Biological Industries) containing 10% fetal bovine serum, 2 mM L-Glutamine (Biological Industries) and 1% penicillin/streptomycin (Biological Industries). 5000 cells per well in 0.2 ml growth media were seeded in a 96-well plate and allowed to attach for 24 hours. After 24 hours the cells were exposed to logarithmic gradient of drugs (Gemcitabine, Sorafenib, Nilotinib, Carfilzomib, Nintedanib, Trametinib, Cabozantinib, Ponatinib, Infigratinib, Duvelisib). Cell survival for the cell lines was assayed after 3 days from adding the drugs. For the U20S and MG-63 by adding […] (5 mg/ml) in DDW to each well. After 3 hours, the solution was removed and 200 μl of DMSO was added. For the Fadu cell line by adding 30 μl of MTT solution (5 mg/ml) in DDW to each well. After 1 hour, the solution was removed and 100 μl of DMSO was added to dissolve the formazan crystals. Cell viability was evaluated by measuring the absorbance of each well using a Synergy H1 (BioTek) plate reader at 570 nm relative to control wells.

[1] = from a short literature review; cited from earlier work

SMILES	potency / growth inhibition in the in-vitro screen (MG63)	sensitivity of cells to free drug and nanoparticle formulation (MG63)	cytotoxicity (MG63; low nanomolar concentrations)	potency in the in-vitro screen (Fadu cells; Fadu cells, MTT)	sensitivity of cells to free drug and nanoparticle formulation (Fadu cells; Fadu cells, MTT)	cytotoxicity (Fadu cells; human) [%]	effectiveness versus chemotherapy combination of pemetrexed and cisplatin [1]
CC(C)C[C@H](NC(=O)[C@H](CCc1ccccc1)NC(=O)CN1CCOCC1)C(=O)N[C@@H](Cc1ccccc1)C(=O)N[C@@H](CC(C)C)C(=O)[C@@]1(C)CO1 [carfilzomib]	most potent compound	extremely sensitive	more than 95%	most potent molecule	less sensitive	64	–
C=CC(=O)Nc1cc(Nc2nccc(-c3cn(C)c4ccccc34)n2)c(OC)cc1N(C)CCN(C)C [osimertinib]	–	–	–	–	–	–	more effective
